Tested on: Varroa destructor
Experiment: Contact test of Varroa mite adults on Potter-tower-treated Petri dishes, mortality
Format: in vivo
Conditions: concentration of formulation (WP75) 67 microgramme; in 2 days; adult mites, 4 dishes of 5, spray deposit contact
Source text: Varroa mites came from bee colonies provided by a beekeeper. The mite population is kept in a dedicated apiary. For screening needs adults are collected on the same day as the beginning of experiment, either in beehive cells containing brood of worker bees or drones, or directly on bees emerging during collection.
Bee nymphs needed to feed adults of Varroa mites during experiments are choosen within the frames from which Varroa is also collected. They are collected at the stage of nymph with white or pink coloured eyes according methology described by Rembold et Kremer (Characterization of postembryonic developmental stages of the female castes of the honey bee, Apis mellifera L.. Apidologie 11: 29-38).
3 cm diameter Petri dishes were used as confinement material of Varroa mites during experiments. Covers with wire mesh were put on the top of each Petri dish in order to avoid the mites to run away but also to keep favorable humidity for the bee nymph.
Applications were done with a Potter tower (described in “An improved apparatus for applying direct sprays and surface films with data on the electrostatic charge on atomize spray fluids.” Annal of Applied Biology, 39 : 1-28.). The active substance was apllied to achieve uniform distribution on the Petri dish (1.5 mg±0.2 mg/cm^2). A check with distilled water was also tested. […]

SMILES: Nc1nc(N)nc(NC2CC2)n1 [cyromazine]
- % mortality of Varroa: 80% in 2 days
